Data published in patent US20110183978A1, “Phenylpyri(mi)dinylazoles” (Bayer CropScience AG, priority 2009, published 2011).

Assay: physchem
[1] = LogPA (logP of the stated pure compound or, in a mixture, of the main isomer, 1-substituted 3-aryl-1H-pyrazole)

Row | chromatographic logP [1] | chromatographic logP (pH 2.3, LogP (pH 2.3)) | chromatographic logP (pH 2.7, logP (pH 2.7)) | SMILES | further results
1 | 1.33 | – | – | COc1ccc(-c2nn(C3CCCCO3)cc2-c2ccnc(C)c2)cc1 (stereo not shown) [Compound 73] | –
2 | – | 4.39 | 4.39 | CCC(C)n1cc(Br)c(-c2ccc(F)cc2)n1 (stereo not shown) [[VI-19], 4-Bromo-1-sec-butyl-3-(4-fluorophenyl)-1H-pyrazole] | –
3 | – | 4.11 | 4.11 | CC(C)On1cc(Br)c(-c2ccc(F)cc2)n1 [[VI-25], 4-Bromo-3-(4-fluorophenyl)-1-isopropoxy-1H-pyrazole] | –
4 | – | 3.52 | 3.52 | Cn1nc(-c2ccc(F)cc2)c(Br)c1OC(F)F [[VI-b-1], 4-Bromo-5-(difluoromethoxy)-3-(4-fluorophenyl)-1-methyl-1H-pyrazole] | –
5 | – | 0.71 | 0.71 | Cn1cc(-c2ccnc(N)c2)c(-c2ccc(F)cc2)n1 [[III-5], 4-[3-(4-Fluorophenyl)-1-methyl-1H-pyrazol-4-yl]pyridin-2-amine] | –
6 | 3.58 | – | – | CSc1nccc(-c2cn(C3CCCCO3)nc2-c2ccc(F)cc2)n1 (stereo not shown) [Compound 74] | –
7 | – | – | 0.62 | O=C(Cc1ccncc1)c1c(F)cccc1F [[XXV-1], 1-(2,6-Difluorophenyl)-2-(pyridin-4-yl)ethanone] | –
8 | 2.04 | – | – | Fc1ccc(-c2nn(CCc3ccccc3Cl)cc2-c2ccncc2)cc1 [Compound 119] | –
9 | 1.64 | – | – | c1ccc(COc2ccccc2-c2c(-c3ccncc3)cnn2C2CCCCO2)cc1 (stereo not shown) [Compound 98, 4-{5-[2-(benzyloxy)phenyl]-1-(tetrahydro-2H-pyran-2-yl)-1H-pyrazol-4-yl}pyridine] | –
10 | – | 4.15 | 4.15 | CC(C)Cn1cc(Br)c(-c2ccc(F)c(C#N)c2)n1 [[VI-11], 5-(4-Bromo-1-isobutyl-1H-pyrazol-3-yl)-2-fluorobenzonitrile] | –
11 | – | 4.42 | 4.42 | CC1(C)OB(c2cn(CC3CC3)nc2-c2ccc(F)cc2)OC1(C)C [[V-8], 1-(Cyclopropylmethyl)-3-(4-fluorophenyl)-4-(4,4,5,5-tetramethyl-1,3,2-dioxaborolan-2-yl)-1H-pyrazole] | –
12 | – | – | – | CCn1cc(-c2ccnc(NC(=O)Cc3ccccc3)c2)c(-c2ccc(F)cc2)n1 [Compound 190] | chromatographic logP (LogPA): 2.72
13 | – | 1.72 | – | Fc1ccc(-c2c(-c3ccncc3)cnn2C2CCCCO2)c2ccccc12 (stereo not shown) [[X-3], 4-[5-(4-fluoro-1-naphthyl)-1-(tetrahydro-2H-pyran-2-yl)-1H-pyrazol-4-yl]pyridine] | –
14 | – | – | – | CC(C)Cn1cc(-c2ccnc(N(C(=O)C(C)(C)C(=O)C(C)C)C(C)C)n2)c(-c2ccc(F)cc2)n1 [Compound 186] | chromatographic logP (LogPA): 3.02
15 | – | 3.08 | 3.08 | CC(CC#N)n1cc(Br)c(-c2ccc(F)cc2)n1 (stereo not shown) [[VI-21], 3-[4-Bromo-3-(4-fluorophenyl)-1H-pyrazol-1-yl]butanonitrile] | –
16 | – | – | 1.4 | CC(C)n1cc(-c2ccncc2)c(-c2c(F)cccc2F)n1 [[I-d-1], 4-[3-(2,6-Difluorophenyl)-1-isopropyl-1H-pyrazol-4-yl]pyridine] | –
17 | 1.42 | – | – | CCNc1cc(-c2cn(C3CCCCO3)nc2-c2ccc(F)cc2)ncn1 (stereo not shown) [Compound 63] | –
18 | – | 3.47 | 3.47 | CC1(C)OB(c2cn(C3CC3)nc2-c2ccc(F)cc2)OC1(C)C [[V-7], 1-Cyclopropyl-3-(4-fluorophenyl)-4-(4,4,5,5-tetramethyl-1,3,2-dioxaborolan-2-yl)-1H-pyrazole] | –
19 | – | 4.81 | 4.81 | CC(C)On1cc(B2OC(C)(C)C(C)(C)O2)c(-c2ccc(F)cc2)n1 [[V-5], 3-(4-Fluorophenyl)-1-isopropoxy-4-(4,4,5,5-tetramethyl-1,3,2-dioxaborolan-2-yl)-1H-pyrazole] | –

Row | chromatographic logP [1] | chromatographic logP (pH 2.3, LogP (pH 2.3)) | chromatographic logP (pH 2.7, logP (pH 2.7)) | SMILES | further results
20 | – | 1.33 | – | CN(C)c1cccc(-c2c(-c3ccncc3)cnn2C2CCCCO2)c1 (stereo not shown) [[X-21], N,N-dimethyl-3-[4-(pyridin-4-yl)-1-(tetrahydro-2H-pyran-2-yl)-1H-pyrazol-5-yl]aniline] | –
21 | – | – | -0.18 | COCC(=O)Nc1cc(B2OC(C)(C)C(C)(C)O2)ccn1 [[XV-a-1], 2-Methoxy-N-[4-(4,4,5,5-tetramethyl-1,3,2-dioxaborolan-2-yl)pyridin-2-yl]acetamide] | –
22 | – | – | 0 | CCOC(=O)Nc1cc(B2OC(C)(C)C(C)(C)O2)ccn1 [[XV-a-6], Ethyl [4-(4,4,5,5-tetramethyl-1,3,2-dioxaborolan-2-yl)pyridin-2-yl]carbamate] | –
23 | 3.5 | – | – | CC(C)=CCn1cc(-c2ccncn2)c(-c2cccc(Cl)c2)n1 [Compound 34] | –
24 | – | – | – | N#Cc1[nH]nc(-c2ccc(F)cc2)c1-c1ccncc1 [Compound 175] | chromatographic logP (LogPA): 1.08
25 | – | 1.23 | 1.23 | Fc1ccc(-c2c(-c3ccncc3)cnn2C2CCCCO2)cc1 (stereo not shown) [[X-1], 4-[5-(4-Fluorophenyl)-1-(tetrahydro-2H-pyran-2-yl)-1H-pyrazol-4-yl]pyridine] | –
26 | – | 3.08 | 3.08 | COCCn1cc(Br)c(-c2ccc(F)cc2)n1 [[VI-6], 4-Bromo-3-(4-fluorophenyl)-1-(2-methoxyethyl)-1H-pyrazole] | –
27 | – | 1.09 | – | c1cnc2c(-c3c(-c4ccncc4)cnn3C3CCCCO3)cccc2c1 (stereo not shown) [[X-24], 8-[4-(pyridin-4-yl)-1-(tetrahydro-2H-pyran-2-yl)-1H-pyrazol-5-yl]quinoline] | –
28 | 1.9 | – | – | CCC(C)n1ncc(-c2ccncc2)c1-c1c(F)cccc1F (stereo not shown) [Compound 38] | –
29 | 0.99 | – | – | Fc1ccc(-c2nn(Cc3ccccn3)cc2-c2ccncc2)cc1 [Compound 115] | –
30 | – | 3.48 | 3.48 | Cn1nc(-c2ccc(F)cc2O)c(Br)c1OC(F)F [[VI-c-1], 2-[4-Bromo-5-(difluoromethoxy)-1-methyl-1H-pyrazol-3-yl]-5-fluorophenol] | –
31 | 2.1 | – | – | FC(F)(F)c1cccc(-c2nn(C3CCCCO3)cc2-c2cc(N3CCOCC3)ncn2)c1 (stereo not shown) [Compound 36] | –
32 | – | 3.01 | 3.01 | Fc1ccc(-c2nn(CC3OCCO3)cc2Br)cc1 [[VI-17], 4-Bromo-1-(1,3-dioxolan-2-ylmethyl)-3-(4-fluorophenyl)-1H-pyrazole] | –
33 | – | – | – | CCn1cc(-c2ccnc(NC(=O)CCc3ccc(Cl)cc3)c2)c(-c2ccc(F)cc2)n1 [Compound 336] | chromatographic logP (LogPA): 3.32
34 | – | – | 2.27 | O=C(Cc1ccnc(Cl)n1)c1ccc(F)cc1 [[XLIII-1], 2-(2-Chloropyrimidin-4-yl)-1-(4-fluorophenyl)ethanone] | –
35 | 2.9 | – | – | Fc1ccc(-c2nn(-c3nnc(C(F)(F)F)s3)cc2-c2ccncc2)cc1 [Compound 111] | –
36 | 1.05 | – | – | CC(=O)OCCn1cc(-c2ccncc2)c(-c2ccc(F)cc2)n1 [Compound 145] | –
37 | 1.78 | – | – | FC(F)(F)Oc1ccc(-c2c(-c3ccncc3)cnn2C2CCCCO2)cc1 (stereo not shown) [Compound 71] | –
38 | – | – | 1.54 | CC(C)n1ncc(-c2ccncc2)c1-c1c(F)cccc1F [[I-d-2], 4-[5-(2,6-Difluorophenyl)-1-isopropyl-1H-pyrazol-4-yl]pyridine] | –

Row | SMILES | chromatographic logP [1] | chromatographic logP (pH 2.3, LogP (pH 2.3)) | chromatographic logP (pH 2.7, logP (pH 2.7)) | further results
39 | N#Cc1cccc(-c2c(-c3ccncc3)cnn2C2CCCCO2)c1 (stereo not shown) [[X-11], 3-[4-(pyridin-4-yl)-1-(tetrahydro-2H-pyran-2-yl)-1H-pyrazol-5-yl]benzonitrile] | – | 1.23 | – | –
